The conditions of data set [1]: cited from earlier work.
Data set [2] can be described thus: Quantitation of limonene evolution from limonene-injected mice (closed chamber, SIFT-MS). The format is in vivo. On the procedure: Having observed robust limonene expression in transfected HeLa cells in culture, the feasibility of detecting limonene in exhaled breath from rodents was then tested. A standard curve relating limonene concentration in chamber headspace to the quantity of limonene spiked into 0.5-L chambers was generated. To determine the fraction of limonene in mice that was emitted into the headspace, mice were injected intraperitoneally with different quantities of a limonene standard solution (from 0.01 μg to 1 mg) and individual mice were placed in a closed chamber for 15 minutes, at which point headspace limonene concentrations were measured by SIFT-MS (FIG. 4A and FIG. 4B).
Using the standard curve, the mass of limonene exhaled by mice at each quantity injected was determined and the fraction exhaled was calculated. At the LOD (0.5 ppb), limonene in the chamber headspace became detectable when 2.3 ng had been spiked into the chamber, whereas limonene evolving from mice only became detectable at an injected dose of 450 ng (FIG. 4B, Supplementary Calculations shown in Example 2, infra). […]
Prior to mouse studies, a calibration curve was generated. Known limonene quantities (10 μg to 100 μg) were added to 10 mL of water in […] (Kent Scientific, Torrington, CT). […]

The structures appear in SMILES notation. Bounds are passed on as bounds.

Take `C=C(C)[C@H]1CC=C(C)CC1` [limonene]: in data set [1], the safe oral dose was at most 100 mg/kg and the “safe oral dose for an average 70 kg adult” value is recorded as around 7 g. Also, the “fraction of injected limonene emitted into the chamber headspace” value in data set [2] (intraperitoneal injection, 0.5-L chamber, within 15 minutes) is listed as around 0.5%. Besides, the “injected dose at which limonene evolving from mice became detectable” value in data set [2] (intraperitoneal, at the LOD (0.5 ppb), 15 minutes) is recorded as 450 ng.

(Values after US20240319166A1, “Genetically-encoded volatile synthetic biomarkers for breath-based cancer detection” (The Board of Trustees of the Leland Stanford Junior …, priority 2021, published 2024).)
